Measured values as given in patent US20180335421A1, “METHOD FOR SCREENING INHIBITORS TARGETING ANTI-APOPTOTIC SURVIVAL PATHWAYS” (Memorial Sloan-Kettering Cancer Center, priority 2015, published 2018).

Columns and labels:
[1] = test system: BCL-XL-addicted H23 cells; experiment: Treatment of engineered H23 cell lines with BCL-2, BCL-XL and MCL-1 inhibitors to confirm selective addiction; conditions: BCL-XL-addicted H23 cells (BCL-XL overexpression, MCL-1 knockdown); FIG. 3B
[2] = test system: BCL-2-addicted H23 cells; experiment: as above; type: cell-based, human; conditions: BCL-2-addicted H23 cells (BCL-2 overexpression, MCL-1 knockdown); FIG. 3B
[3] = test system: A549 cells; experiment: ABT-737-induced apoptosis after knockdown of MCL-1; type: cell-based, human; conditions: A549 cells with knockdown of MCL-1
[4] = test system: parental H23 cells; experiment: Treatment of parental (MCL-1-addicted) H23 cells with BCL-2, BCL-XL and MCL-1 inhibitors; type: cell-based, human; conditions: parental H23 cells (MCL-1-addicted); FIG. 3B
[5] = test system: wild-type cells; experiment: Sensitivity of wild-type cells to BH3-only proteins; type: cell-based, mouse; conditions: wild-type cells lacking pre-assembled cell death priming complexes; FIG. 2B
Text: (§1) Importantly, this system mimics the “primed” cell death state of many cancers with abundant pre-assembled complexes of BCL-XL/BIM, BCL-XL/PUMA, BCL-2/BIM, BCL-2/PUMA, MCL-1/BIM or MCL-1/PUMA. […] In addition, compounds that downregulate MCL-1 mRNA and/or protein or induce endogenous NOXA, BIM, or PUMA will trigger similar death patterns.

[6] = test system: MCL-1-IRES-BIM or MCL-1-IRES-PUMA MEFs; experiment: Apoptosis induction by BH3-only proteins in engineered MEFs; type: cell-based, mouse; conditions: MCL-1-addicted MEFs; FIGS. 2A and 2B
Text: (§2) Cellular dependency on BCL-2, BCL-XL or MCL-1 for survival is governed by the relative abundance among these proteins (FIG. 1). Intricate interplays among the BCL-2 subfamilies govern cellular survival/death, and also provide a molecular blueprint concerning the clinical application of BH3-mimetics in killing cancer cells. Using MEFs that express different combinations of anti-apoptotic BCL-2 members and activator BH3s, a system has been built that can distinguish between the inhibition of BCL-2/BCL-XL and MCL-1 by BAD/BAD mimetics and […]/NOXA mimetics, respectively (FIGS. 2A and 2B).
as §1

[7] = target: MCL-1 (Homo sapiens, UniProt Q07820); conditions: background statement; cited from earlier work
MCL-1, sequence (Q07820 whole entry): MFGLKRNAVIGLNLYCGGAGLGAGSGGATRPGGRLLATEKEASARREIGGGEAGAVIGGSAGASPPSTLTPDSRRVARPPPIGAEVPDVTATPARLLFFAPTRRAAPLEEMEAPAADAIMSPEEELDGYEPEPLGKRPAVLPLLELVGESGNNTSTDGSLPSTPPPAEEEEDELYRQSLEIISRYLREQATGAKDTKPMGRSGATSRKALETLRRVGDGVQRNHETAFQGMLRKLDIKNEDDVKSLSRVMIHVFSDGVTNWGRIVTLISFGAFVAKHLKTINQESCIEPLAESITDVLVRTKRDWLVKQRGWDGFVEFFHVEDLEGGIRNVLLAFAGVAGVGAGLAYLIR

[8] = test system: BCL-XL-IRES-BIM, BCL-XL-IRES-PUMA, BCL-2-IRES-BIM or BCL-2-IRES-PUMA MEFs; experiment: Apoptosis induction by BH3-only proteins in engineered MEFs; type: cell-based, mouse; conditions: BCL-XL- or BCL-2-addicted MEFs; FIGS. 2A and 2B
Text: as §2, §1

Molecule: CN(C)CC[C@H](CSc1ccccc1)Nc1ccc(S(=O)(=O)NC(=O)c2ccc(N3CCN(Cc4ccccc4-c4ccc(Cl)cc4)CC3)cc2)cc1[N+](=O)[O-] [ABT-737, (R)-4-(4-((4′-chloro-[1,1′-biphenyl]-2-yl)methyl)piperazin-1-yl)-N-((4-((-4-(dimethylamino)-1-(phenylthio)butan-2-yl)amino)-3-nitrophenyl)sulfonyl)benzamide]
- sensitivity of cells to inhibitor [1]: sensitive
- sensitivity of cells to inhibitor [2]: sensitive
- susceptibility to ABT-737-induced apoptosis [3]: susceptible
- sensitivity of cells to inhibitor [4]: only sensitive to inhibitors of MCL-1

Molecule: NOXA: pro-apoptotic BH3-only member of the BCL-2 protein family that specifically inactivates MCL-1 (MPGKKARKNAQPSPARAPAELEVECATQLRRFGDKLNFRQKLLNLISKLFCSGT; UniProt Q13794 1-54, looked up)
- sensitivity of wild-type cells [5]: less sensitive
- induction of apoptosis [6]: selectively induces apoptosis

Molecule: CC1(C)CCC(c2ccc(Cl)cc2)=C(CN2CCN(c3ccc(C(=O)NS(=O)(=O)c4ccc(N[C@H](CCN5CCOCC5)CSc5ccccc5)c(S(=O)(=O)C(F)(F)F)c4)cc3)CC2)C1 [ABT-263]
- inhibition of MCL-1 [7]: fail to inhibit

B1: BAD: pro-apoptotic BH3-only BCL-2 family protein that binds to BCL-XL and BCL-2 but not MCL-1 (protein, UniProt Q92934 1-168, looked up)
Bcl2-associated agonist of …: MFQIPEFEPSEQEDSSSAERGLGPSPAGDGPSGSGKHHRQAPGLLWDASHQQEQPTSSSHHGGAGAVEIRSRHSSYPAGTEDDEGMGEEPSPFRGRSRSAPPNLWAAQRYGRELRRMSDEFVDSFKKGLPRPKSAGTATQMRQSSSWTRVFQSWWDRNLGRGSSAPSQ
- sensitivity of wild-type cells [5]: less sensitive
- induction of apoptosis [8]: induces apoptosis
